{"source": "patent US20230313181A1", "about": "“HISTIDINE-LYSINE POLYMERS AND METHODS FOR DELIVERING MRNA USING THE SAME” (UNIVERSITY OF MARYLAND, BALTIMORE, priority 2019, published 2023)", "key": {"[1]": {"conditions": "prior studies [34, 35, 45]; cited from earlier work"}, "[2]": {"tested_on": "MDA-MB-231 cells", "assay": "mRNA transfection with HK associated lipid particles (HK polymer + DOTAP liposomes)", "type": "cell-based", "conditions": "luciferase mRNA", "method": "FIGS. 8A and 8B. Comparison of mRNA transfection with DOTAP and several HK polymers. To form HK associated lipid particles, the mRNA (1 μg) was initially mixed with the HK polymer (4 μg) for 30 min and then with the DOTAP liposomes (1 μg) for 30 min. HK polyplexes were prepared as described previously. These complexes were then added to the cells for 24 h before the luciferase activity was measured *, P<0.05; **, P<0.01; ***, P<0.001; […].\nTransfection with HK associated lipid particles was done similarly as above with few exceptions. In brief, the HK polymer was mixed initially with mRNA at various ratios for 30 min in Opti-MEM. This was followed by adding the DOTAP cationic liposome (1,2-dioleoyl-3-trimethylam-monium-propane; […]; Roche, Basel, CH) for 30 additional min. The Opti-MEM mixture (50 μl) was then added dropwise to the cells."}, "[3]": {"tested_on": "mRNA", "assay": "Gel retardation assay of HK polymer/mRNA polyplexes", "type": "physicochemical", "conditions": "1:2 and 1:1 ratios (wt:wt; peptide:mRNA)", "method": "FIG. 3. Gel retardation assay. After H3K(+H)4b or H3K4b carriers were mixed with mRNA at the various ratios shown in the figure (wt:wt; peptide:mRNA, mRNA was 1 μg in each) for 30 min, the HK polyplexes were loaded onto the gel (1% agarose). Electrophoresis was carried out at a constant voltage of 75 V for 30 min in TAE buffer and then stained with Sybr Gold as detailed herein. In first lane, RNA standard (New England Biolabls, B0363A) was loaded whereas in the second lane, the control, luciferase mRNA without a carrier was loaded into the well. In subsequent lanes, various ratios of mRNA:HK were loaded into wells.\nGel Retardation Assay. Various amounts of HK polymers were mixed with […] of mRNA and incubated for 30 min at room temperature. Specifically, the following HK polymer/mRNA ratios (w/w) were prepared in water: 1/2; 1/1; 2/1, 4/1, 8/1. After 30 min, the HK polyplex was loaded onto the gel (1% agarose, Sigma-Aldrich; 10× BlueJuice Gel loading buffer, ThermoFisher Scientific), electrophoresis was then carried out at a constant voltage of 75 V for 30 min in TAE buffer (Quality Biologicals, Gaithersburg, MD). The mRNA was stained with Sybr Gold Nucleic Acid dye (SG, 1×) (ThermoFisher Scientific) for 30 min before exposure to the UV imager (ChemiDoc Touch, BIO-RAD, Hercules, CA)."}, "[4]": {"tested_on": "mRNA", "assay": "Heparin displacement assays (gel electrophoresis and Sybr Gold dye intercalation)", "type": "physicochemical", "conditions": "HK:mRNA 4:1 wt/wt", "method": "FIG. 4. Heparin Displacement Assays. After HK polyplexes were formed (wt:wt; HK:mRNA; 4 μg:1 μg), different concentrations of heparin […] were incubated with these for 30 min. A. Gel Retardation. The HK polyplexes were loaded on the agarose gel (1%), and electrophoresis was carried out and stained with Sybr Gold. B. Fluorescent dye intercalation. After the HK polyplexes were formed and incubated with several concentrations of heparin, the Sybr Gold nucleic acid dye was incubated with the HK polyplexes for 5 mins. Fluorescence was then measured by a microplate fluorimeter (λex=497 nm, λem=520 nm) (SynergyMx, BioTek). *, P<0.05; ***, P<0.001; H3K4b or H2K vs. H3K(+H)4b.\nHeparin Displacement Assays. Heparin displacement assays of HK polyplexes were done with the dye intercalation assay and with gel electrophoresis. A fluorescent assay assessed polyplexes of HK polymer and mRNA (4:1 wt/wt ratio; polymer:mRNA) formed in RNAse/DNAase free water (Corning, Manassas, VA). HK polyplexes were prepared as described previously, followed by the addition of diluted Syber Gold. For detection, working dilutions of the polyplexes (1/5 of volume), water (3/5) and Sybr Gold dye (1/5, 0.2×) were incubated for 5 minutes, and fluorescence was measured by a fluorimeter (Ex=497 nm, Em=520 nm) (SynergyMx, BioTek, Winooski, VT). The control sample was prepared with the same amount of mRNA, water, and Sybr Gold dye. For the heparin displacement, instead of water, heparin salt (Sigma-Aldrich, St. Louis, MO) solutions at different concentrations (0.5, 1, 1.5, 2, 3 μg/μl) were used, and the HK polyplexes were incubated at 37° C. for 30 min before addition of Sybr Gold.\nDisplacement of mRNA from HK polyplexes with heparin was also done with gel electrophoresis. After HK polyplexes were formed, different concentrations of heparin (0.5, 1.0, 1.5, 2.0, 3.0 μg/μl; volume 20 μl) were incubated with these at 37° C. for 30 min. The polyplexes were then loaded on the agarose gel (1%; 10× BlueJuice Gel loading buffer), and electrophoresis was carried out and stained with SG as described above. […]"}, "[5]": {"tested_on": "MDA-MB-231 cells", "assay": "In vitro mRNA transfection with HK polyplexes (luciferase mRNA, luciferase activity)", "type": "cell-based", "conditions": "for RLU/μg-Protein (luciferase activity): mRNA 1 μg, 24 h", "method": "FIG. 1. Comparison of H3K(+H)4b and H3K4b peptides as carriers of mRNA. To form the HK polyplexes, the mRNA (1 μg) was mixed with 3 different ratios of the HK ([…]) polymer for 30 minutes. The HK polyplexes were then added to the cells for 24 h before the luciferase activity was measured. ****, H3K(+H)4b vs H3K4b, P<0.0001.\nIn vitro mRNA Transfection. Several HK polymers were examined for their ability to carry a luciferase-expressing mRNA (CleanCap Firefly Luciferase mRNA, Trilink Biotechnologies, Inc, San Diego, CA) into MDA-MB-231 cells (America Type Tissue Culture, Manassas, VA). In brief, 3×10^4 cells were plated into a 24-well plate containing 500 μl of DMEM and 10% fetal bovine serum (ThermoFisher Scientific, Waltham, MA). After 24 h, when the cells were 60 to 80% confluent, the media in each well was changed to Opti-MEM (ThermoFisher Scientific). To prepare HK polyplexes, mRNA (1 μg) in 50 μl of Opti-MEM was briefly mixed well with one of the HK polymers (4 to 12 μg) and maintained at room temperature for 30 min. This polyplex was then added dropwise to the cells. After four h, the Opti-MEM media was removed and replaced with 0.5 ml of DMEM/10% serum (0.5 ml). Twenty-four hours later, the cells were lysed, and the luciferase activity (Promega Corporation, Madison, WI) was measured.\nTo obtain the data in Table 4, luciferase-expressing mRNA (1 μg) in 50 μl of Opti-MEM was briefly mixed with one of the HK polymers (4, 8, or 12 μg) and maintained at room temperature for 30 min. The resulting polyplexes were added dropwise to the MDA-NM-231 cells and after four h, the Opti-MEM media was removed and replaced with DMEM/10% serum. Twenty-four hours later, the cells were lysed, and the luciferase activity was measured"}}, "note": "Bridges are numbered along the chain shown (N, C = ends). Roman numbers before positions name the chains, in order. Where no end group is shown, it is not given here."}
{"substance": "I: KHHHKHHHKHHHHKHHHKKKK-NH2 / II: KHHHKHHHKHHHHKHHHK / III: KHHHKHHHKHHHHKHHHK / IV: KHHHKHHHKHHHHKHHHK (amide I:19-IV:C, I:20-III:C, I:21-II:C) [H3K(+H)4b]", "values": [{"measurement": "carrier of siRNA (in words)", "setting": "[1]", "result": "effective carriers of siRNA"}, {"measurement": "mRNA transfection compared with DOTAP liposomes (in words)", "setting": "[2]", "result": "significantly better carriers of mRNA than the DOTAP liposomes"}, {"measurement": "retardation of mRNA at low ratios compared with H3K4b (in words)", "setting": "[3]", "result": "markedly less retarded"}, {"measurement": "binding/release of mRNA and polyplex stability on exposure to heparin (in words)", "setting": "[4]", "result": "binds more tightly to the mRNA"}, {"measurement": "luciferase expression, fold greater than with H3K4b", "setting": "[5]; 4:1 ratio (HK:mRNA; wt:wt)", "result": 10, "unit": "fold"}, {"measurement": "effectiveness as carrier of mRNA (in words)", "setting": "[5]; luciferase mRNA, HK polyplex", "result": "markedly better as a carrier of mRNA"}, {"measurement": "RLU/μg-Protein (luciferase activity)", "setting": "[5]; ratio mRNA:polymer 1:4 (wt:wt)", "result": "1532.9 ± 122.9", "unit": "RLU/μg-Protein"}, {"measurement": "RLU/μg-Protein (luciferase activity)", "setting": "[5]; ratio mRNA:polymer 1:8 (wt:wt)", "result": "1656.3 ± 202.5", "unit": "RLU/μg-Protein"}, {"measurement": "RLU/μg-Protein (luciferase activity)", "setting": "[5]; ratio mRNA:polymer 1:12 (wt:wt)", "result": "1033.4 ± 197^ RLU/μg-Protein"}]}
